Results as given in the supplement of paper PMC10307832.

Key:
Test in all cases: relative viability (nuclei count vs DMSO), 5 days (fraction); higher = more cells survive
Motesanib + Lapatinib = compound: CC1(C)CNc2cc(NC(=O)c3cccnc3NCc3ccncc3)ccc21 [Motesanib] + CS(=O)(=O)CCNCc1ccc(-c2ccc3ncnc(Nc4ccc(OCc5cccc(F)c5)c(Cl)c4)c3c2)o1 [Lapatinib] (partner 2 µM)
In short: (§1)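 One day after seeding in 1536-well plates, lung cancer cell lines were dosed by pin tool. Dosing was either single-drug or a fixed anchor-drug dose plus five library-drug doses (not always all listed) in √10 steps. After 5 days, nuclei were stained in one fix-and-stain step and counted on 4× images, and relative viability is the nuclei count of treated wells over that of vehicle wells, given as the median of duplicate plates.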

[1] = compound: C[C@@]1(C(=O)Nc2ccc(F)nc2)CCCN1c1nc(Nc2cc(C3CC3)n[nH]2)c2cccn2n1 + C[C@@H](Oc1cc(-c2cnn(C3CCNCC3)c2)cnc1N)c1c(Cl)ccc(F)c1Cl [Crizotinib] (partner 1 µM)
In short: as §1

[2] = compound: C[C@@]1(C(=O)Nc2ccc(F)nc2)CCCN1c1nc(Nc2cc(C3CC3)n[nH]2)c2cccn2n1 + O=C(c1cc(Cc2n[nH]c(=O)c3ccccc23)ccc1F)N1CCN(C(=O)C2CC2)CC1 [Olaparib] (partner 8 µM)
In short: as §1

Motesanib + Dasatinib = compound: CC1(C)CNc2cc(NC(=O)c3cccnc3NCc3ccncc3)ccc21 [Motesanib] + Cc1nc(Nc2ncc(C(=O)Nc3c(C)cccc3Cl)s2)cc(N2CCN(CCO)CC2)n1 [Dasatinib] (partner 0.075 µM)
In short: as §1

Row | Cell Line | relative viability (Motesanib + Lapatinib; first compound 0.01 µM) | relative viability (Motesanib + Lapatinib; first compound 0.03162 µM) | relative viability (Motesanib + Lapatinib; first compound 0.1 µM) | relative viability (Motesanib + Lapatinib; first compound 0.3162 µM) | relative viability (Motesanib + Lapatinib; first compound 1 µM) | relative viability ([1]; first compound 0.04 µM) | relative viability ([1]; first compound 0.1265 µM) | relative viability ([1]; first compound 0.4 µM) | relative viability ([1]; first compound 1.265 µM) | relative viability ([2]; first compound 0.04 µM) | relative viability ([2]; first compound 0.1265 µM) | relative viability ([2]; first compound 0.4 µM) | relative viability ([2]; first compound 1.265 µM) | relative viability (Motesanib + Dasatinib; first compound 0.01 µM) | relative viability (Motesanib + Dasatinib; first compound 0.03162 µM) | relative viability (Motesanib + Dasatinib; first compound 0.1 µM) | relative viability (Motesanib + Dasatinib; first compound 0.3162 µM) | relative viability (Motesanib + Dasatinib; first compound 1 µM)
1 | NCI-H322M | 0.553 | 0.372 | 0.696 | 0.587 | 0.566 | 1.04 | 0.75 | 0.613 | 1.15 | 0.473 | 0.552 | 0.596 | 0.664 | 0.234 | 0.216 | 0.268 | 0.26 | 0.262
2 | NCI-H358 | 0.489 | 0.472 | 0.424 | 0.555 | 0.463 | 0.474 | 0.394 | 0.241 | 0.216 | 0.477 | 0.311 | 0.183 | 0.233 | 0.14 | 0.155 | 0.133 | 0.2 | 0.158
3 | NCI-H460 | 0.961 | 0.779 | 0.892 | 0.974 | 0.864 | 0.985 | 0.699 | 0.639 | 0.331 | 0.495 | 0.334 | 0.346 | 0.23 | 0.406 | 0.481 | 0.525 | 0.63 | 0.626
4 | NCI-H520 | 0.714 | 0.823 | 0.877 | 0.882 | 0.899 | 0.802 | 0.499 | 0.618 | 0.636 | 0.334 | 0.33 | 0.298 | 0.291 | 0.208 | 0.196 | 0.21 | 0.226 | 0.218
5 | NCI-H596 | 1.08 | 1.04 | 1.06 | 1.16 | 1.18 | 1.05 | 0.984 | 0.857 | 1.06 | 0.714 | 0.697 | 0.608 | 0.571 | 0.651 | 0.543 | 0.534 | 0.563 | 0.53
6 | NCI-H647 | 0.995 | 1 | 1.11 | 1.19 | 1.09 | 1.07 | 1.03 | 0.841 | 0.447 | 0.607 | 0.487 | 0.368 | 0.505 | 0.194 | 0.169 | 0.151 | 0.191 | 0.221
7 | NCI-H650 | 0.815 | 0.932 | 0.897 | 1.13 | 0.888 | 0.764 | 0.449 | 0.489 | 0.47 | 0.372 | 0.326 | 0.281 | 0.237 | 0.399 |  | 0.442 | 0.501 | 0.444
8 | NCI-H661 | 0.429 | 0.563 | 0.511 | 0.386 | 0.49 | 0.983 |  | 1.01 |  | 0.742 | 0.849 | 0.778 | 0.634 | 0.818 | 0.842 | 0.833 | 0.977 | 0.861
9 | NCI-H727 | 0.821 | 0.902 | 0.858 | 1.13 | 0.787 | 0.687 | 0.436 | 0.259 | 0.211 | 0.746 | 0.506 | 0.476 | 0.416 | 0.39 | 0.241 | 0.404 | 0.448 | 0.34
10 | NCI-H838 | 0.98 | 1.03 | 0.914 | 1.19 | 1.02 | 0.868 | 0.67 | 0.621 | 0.708 | 0.726 | 0.636 | 0.555 | 0.388 | 0.301 | 0.274 | 0.333 | 0.307 | 0.391
11 | NCI-H1355 | 1.07 | 1.01 | 1.04 | 1.09 | 0.962 | 0.896 | 0.824 | 0.728 | 1.02 | 0.661 | 0.59 | 0.561 | 0.572 | 0.74 | 0.548 | 0.717 | 0.732 | 0.684
12 | NCI-H1437 | 0.719 | 0.78 | 0.756 | 0.9 | 0.781 | 0.932 | 0.714 | 0.561 | 0.762 | 0.666 | 0.631 | 0.576 | 0.59 | 0.266 | 0.22 | 0.383 | 0.575 | 0.405
13 | NCI-H1650 | 0.807 |  | 0.667 | 0.723 | 0.735 | 0.966 | 0.813 | 0.9 | 0.366 | 0.692 | 0.846 | 0.678 | 0.729 | 0.374 | 0.337 | 0.33 | 0.329 | 0.298
14 | NCI-H1651 | 0.704 | 0.706 | 0.699 | 0.921 | 0.786 | 0.762 | 0.896 | 0.775 | 0.846 | 0.2 | 0.183 | 0.196 | 0.201 | 0.408 | 0.339 | 0.384 | 0.451 | 0.432
15 | NCI-H1666 | 0.882 | 0.709 | 0.691 | 0.69 | 0.667 | 0.811 | 0.845 | 0.708 | 0.574 | 0.707 | 0.73 | 0.713 | 0.724 | 0.783 | 0.747 | 0.89 | 0.797 | 0.802
16 | NCI-H1734 | 0.99 | 1.14 | 1.03 | 1.14 | 0.99 | 0.554 | 0.51 | 0.358 | 0.509 | 0.506 | 0.405 | 0.385 | 0.436 | 0.515 | 0.448 |  | 0.463 | 0.405
17 | NCI-H1755 | 1.02 | 1.05 | 1.08 | 1.28 | 0.997 | 0.919 | 0.793 | 0.756 | 0.836 | 0.93 | 0.73 | 0.759 | 0.851 | 0.381 | 0.426 | 0.463 | 0.48 | 0.466
18 | NCI-H1792 | 0.881 | 0.854 | 0.843 | 0.926 | 0.945 | 0.896 | 0.677 | 0.62 | 0.473 | 0.194 | 0.175 | 0.0767 | 0.161 |  | 0.749 | 0.808 | 0.953 | 0.767
